# Experimental data from ChEMBL document CHEMBL1201862, “PubChem BioAssay data set” (2004).
#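 How tested: cells in 96-well plates exposed to compound for 48 hours at five concentrations. Here, GI50 denotes the concentration required for 50% inhibition of growth.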 Active and inactive are the calls of the source. Cut-off read from the data, not from the text of the source: active = GI50 up to about 1.1 µM and inactive = higher.
# How the values were obtained:
# Assay in all cases: DTP human tumour cell line panel, 48 h
# [1] = test system: DMS-273
# [2] = test system: XF498
# [3] = test system: DMS-114
# [4] = test system: HOP-18
# [5] = test system: KM-20L2
# [6] = test system: DLD-1
# [7] = test system: LXFL 529
# [8] = test system: RXF 631
# [9] = test system: SNB-78
SMILES,GI50 [1],GI50 [2],GI50 [3],GI50 [4],GI50 [5],GI50 [6],GI50 [7],GI50 [8],GI50 [9]
O=C(O/N=C1/CCCC/C1=C\c1ccccc1)c1ccccc1,40.3 µM (inactive),> 100 µM (inactive),17.1 µM (inactive),> 100 µM (inactive),> 100 µM (inactive),30.5 µM (inactive),28.4 µM (inactive),,
C/C(=N\NS(=O)(=O)c1ccccc1)c1ccc[n+]([O-])n1,> 100 µM (inactive),,97.3 µM (inactive),> 100 µM (inactive),> 100 µM (inactive),44.9 µM (inactive),37.8 µM (inactive),> 100 µM (inactive),63.7 µM (inactive)
O=c1[nH]cc(COCC(O)CO)c(=O)[nH]1 (stereo not given),> 100 µM (inactive),> 100 µM (inactive),> 100 µM (inactive),> 100 µM (inactive),> 100 µM (inactive),> 100 µM (inactive),> 100 µM (inactive),> 100 µM (inactive),> 100 µM (inactive)
C=CCc1cc(OC)c(O)c(C(=O)/C=C/c2ccc(OC)c(OC)c2)c1,23.4 µM (inactive),14.1 µM (inactive),17.8 µM (inactive),,> 10 µM (inactive),18.4 µM (inactive),20.9 µM (inactive),25.4 µM (inactive),28.8 µM (inactive)
CN1CC(C(=O)C2C(=O)c3ccccc3C2=O)C(=O)C(=O)C(C(=O)C2C(=O)c3ccccc3C2=O)C1 (stereo not given),> 100 µM (inactive),> 100 µM (inactive),> 100 µM (inactive),,,> 100 µM (inactive),,> 100 µM (inactive),
N#Cc1nc(Nc2ccc(Cl)cc2)sc1N,13.2 µM (inactive),14.3 µM (inactive),3.07 µM (inactive),29.4 µM (inactive),17.1 µM (inactive),17.9 µM (inactive),3.55 µM (inactive),,10.8 µM (inactive)
CCOC(=O)c1s/c(=N\Nc2nc3ccccc3cc2C2OCCO2)n(Cc2ccccc2)c1C,> 100 µM (inactive),> 100 µM (inactive),> 100 µM (inactive),> 100 µM (inactive),> 100 µM (inactive),> 100 µM (inactive),> 100 µM (inactive),> 100 µM (inactive),> 100 µM (inactive)
Cc1c2ccnc(C(N)=O)c2c(C)c2c1[nH]c1ccccc12,2.39 µM (inactive),8.24 µM (inactive),8.91 µM (inactive),9.48 µM (inactive),6.62 µM (inactive),5.07 µM (inactive),5.69 µM (inactive),4.58 µM (inactive),14 µM (inactive)
O=C1NC(=O)C(C(=O)C(=O)Nc2cccc(C(F)(F)F)c2)C(=O)N1,,,> 100 µM (inactive),,> 100 µM (inactive),> 100 µM (inactive),> 100 µM (inactive),,> 100 µM (inactive)
N#Cc1ccccc1NC(=O)c1ccccc1,> 100 µM (inactive),> 100 µM (inactive),,> 100 µM (inactive),> 100 µM (inactive),> 100 µM (inactive),,,> 100 µM (inactive)
CN(CCN(C)C(=O)CCn1cc(F)c(=O)[nH]c1=O)C(=O)CCn1cc(F)c(=O)[nH]c1=O,> 100 µM (inactive),> 100 µM (inactive),> 100 µM (inactive),,> 100 µM (inactive),,> 100 µM (inactive),,
CC1COS(=O)N1c1ccccc1 (stereo not given),> 100 µM (inactive),> 100 µM (inactive),> 100 µM (inactive),> 100 µM (inactive),> 100 µM (inactive),> 100 µM (inactive),> 100 µM (inactive),,
O=C1NC(=O)C(=Cc2c3ccccc3cc3ccccc23)C(=O)N1,> 100 µM (inactive),> 100 µM (inactive),,83.8 µM (inactive),> 100 µM (inactive),,79.4 µM (inactive),> 100 µM (inactive),
Nc1nc(SCCC/C=C/B(O)O)nc2c1ncn2C1OC(COP(=O)(O)O)C(O)C1O (stereo not given),> 203 µM (inactive),> 203 µM (inactive),> 203 µM (inactive),> 203 µM (inactive),> 203 µM (inactive),> 203 µM (inactive),,,> 203 µM (inactive)
Cc1nn(-c2ccccc2)c2nc(N3CCOCC3)nnc12,> 100 µM (inactive),51.8 µM (inactive),34.4 µM (inactive),< 0.01 µM (active),> 100 µM (inactive),59.2 µM (inactive),53.3 µM (inactive),92.7 µM (inactive),> 100 µM (inactive)
O=C(N/C(=C\c1ccc2c(c1)OCO2)c1nc2ccccc2[nH]1)c1ccccc1,28.8 µM (inactive),15.5 µM (inactive),2.39 µM (inactive),43.6 µM (inactive),33.7 µM (inactive),30.8 µM (inactive),20.4 µM (inactive),,39.4 µM (inactive)
N#CCC(=O)N/N=C(/C(=O)Nc1ccccc1)C1C(=O)N(c2ccccc2)N=C1N (stereo not given),> 100 µM (inactive),> 100 µM (inactive),> 100 µM (inactive),> 100 µM (inactive),> 100 µM (inactive),> 100 µM (inactive),> 100 µM (inactive),> 100 µM (inactive),> 100 µM (inactive)
C=CCc1cc(-c2cc(CC=C)c(O)c(CN(CCCl)CCCl)c2)cc(CN(CCCl)CCCl)c1O,7.83 µM (inactive),> 10 µM (inactive),,25.2 µM (inactive),16.6 µM (inactive),16.4 µM (inactive),12.2 µM (inactive),14.1 µM (inactive),35.4 µM (inactive)
CC(=O)OCC(OC(C)=O)C(OC(C)=O)C(OC(C)=O)C(=O)CNn1c(-c2ccc(C)cc2)nc2ccccc2c1=O (stereo not given),> 100 µM (inactive),16.5 µM (inactive),54.1 µM (inactive),,> 100 µM (inactive),,> 100 µM (inactive),,> 100 µM (inactive)
CC(C)N(C(=O)C12C3C4C1(I)C1C2C3(I)C41C(=O)N(C(C)C)C(C)C)C(C)C (stereo not given),> 100 µM (inactive),> 100 µM (inactive),,> 100 µM (inactive),> 100 µM (inactive),> 56.5 µM (inactive),> 67.6 µM (inactive),> 100 µM (inactive),
Nc1nc(=O)c(/N=N/c2ccccc2)c(N)[nH]1,37.2 µM (inactive),60.1 µM (inactive),25.6 µM (inactive),38 µM (inactive),59.2 µM (inactive),43.1 µM (inactive),,,19.6 µM (inactive)
CCOC(=O)C1C(c2ccc(Br)cc2)N(Cc2ccccc2)C(c2ccc(Br)cc2)C(C(=O)OC)S1(=O)=O (stereo not given),74.1 µM (inactive),> 100 µM (inactive),66.4 µM (inactive),21.9 µM (inactive),> 100 µM (inactive),> 100 µM (inactive),> 100 µM (inactive),,> 100 µM (inactive)
CCCNC(=O)C(C)(Cl)C(=O)c1ccccc1O (stereo not given),> 100 µM (inactive),,> 100 µM (inactive),> 100 µM (inactive),> 100 µM (inactive),> 100 µM (inactive),> 100 µM (inactive),,> 100 µM (inactive)
COc1ccccc1NC(=O)C1=C(C)NC(C)=C(C(=O)Nc2ccccc2OC)C1c1ccc([N+](=O)[O-])cc1,86.7 µM (inactive),3.5 µM (inactive),9.12 µM (inactive),> 100 µM (inactive),> 100 µM (inactive),46.6 µM (inactive),48.2 µM (inactive),56.8 µM (inactive),> 100 µM (inactive)
CCCCCNC(=O)C1C(=O)N(CCCCC)C(=O)/C1=N\N (stereo not given),,,,50 µM (inactive),48.6 µM (inactive),70.6 µM (inactive),41.2 µM (inactive),,23.6 µM (inactive)
COc1c(OC(C)=O)c(OC(C)=O)cc2c1-c1ccc(OC)c(=O)cc1C(NC(C)=O)CC2 (stereo not given),0.0172 µM (active),0.0311 µM (active),< 0.0127 µM (active),,0.0222 µM (active),0.0186 µM (active),< 0.01 µM (active),0.0676 µM (active),< 0.01 µM (active)
